These results are taken from patent publication US20250134882A1, “PROTEIN TYROSINE PHOSPHATASE INHIBITORS AND USES THEREOF” (Nerio Therapeutics, Inc., priority 2022, published 2025).

For test [1], the system named is murine B16F10 melanoma cell line. Kind of test: B16F10 IFNγ-induced cellular growth inhibition assay (xCELLigence RTCA). The settings on record: Mus musculus, B16-F10, 48 h; read-out: B16 IFNγ Mediated Growth Inhibition Assay: AVG IC50. Type of test: cell-based. As for the experimental part: Example B: B16F10 Cellular Growth Inhibition Assay Compound activity was determined using an interferon gamma (IFNγ)-induced cellular growth inhibition assay with the murine B16F10 melanoma cell line on an Agilent xCELLigence Real-Time Cell Analysis platform (RTCA). RTCA E-Plate View 96 plates (Agilent, 300601010) were pre-equilibrated with 50 μL of assay media (DMEM+10% FBS, Gibco 10566-024, Gibco 10082-147) at 37° C. in a humidified incubator before taking an initial measurement of impedance (sweep). […] Cells were incubated at room temperature for 20 min to allow cells to settle before placing them in the xCELLigence reader and incubating overnight at 37° C., sweeping wells every 15 minutes. After 24 hours, well readings were paused, plates were removed from the incubator and compounds were added using a Tecan D300e dispenser. […] Assay plates were placed in the xCELLigence reader and swept every 15 minutes. After 48 hours, well readings were normalized to the time point immediately preceding compound addition and the area under the growth curve (AUC) was calculated by the RTCA software and exported.

The target of test [2] is full-length human PTPN2 (TC45) (1-387) protein (Homo sapiens (Human), UniProt P17706). Description: Enzymatic assay with full-length PTPN2 and DiFMUP substrate. Format: biochemical. The settings on record: 0.5 nM PTPN2, 100 μM DiFMUP, 30 min at room temperature. From the text: Compounds were subsequently added using a Tecan D300e dispenser. […] A four-parameter curve fit was used to determine IC50 values from % inhibition data.

A word on the IC50: it is the concentration at which inhibition is half-maximal.

Chain of full-length human PTPN2 (TC45) (1-387) protein (P17706 other isoform, or with tags, fused parts or gaps): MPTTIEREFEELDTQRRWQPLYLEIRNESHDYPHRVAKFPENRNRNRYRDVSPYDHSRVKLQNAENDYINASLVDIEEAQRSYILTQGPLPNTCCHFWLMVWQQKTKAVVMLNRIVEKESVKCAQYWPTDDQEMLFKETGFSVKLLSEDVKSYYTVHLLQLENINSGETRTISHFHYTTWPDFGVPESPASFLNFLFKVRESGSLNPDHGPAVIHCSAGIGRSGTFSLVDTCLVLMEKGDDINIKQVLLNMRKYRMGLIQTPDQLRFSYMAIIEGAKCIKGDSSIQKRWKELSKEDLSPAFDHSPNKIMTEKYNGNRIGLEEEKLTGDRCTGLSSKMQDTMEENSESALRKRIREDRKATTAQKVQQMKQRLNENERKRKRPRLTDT

On to `CC(C)CCN[C@@H]1C[C@H]2C[C@@H]1c1c2cc(O)c(N2CC(=O)NS2(=O)=O)c1F` [Example 3, 5-((1R,3R,4R)-5-fluoro-7-hydroxy-3-(isopentylamino)-1,2,3,4-tetrahydro-1,4-methanonaphthalen-6-yl)-1,2,5-thiadiazolidin-3-one 1,1-dioxide], for which, in test [1], the half-maximal inhibitory concentration (IC50) worked out at 7.82 µM.

`CC(C)CCNC1CCc2nc(O)c(N3CC(=O)NS3(=O)=O)c(F)c2C1` (centres unmarked) [Example 4, 5-(4-fluoro-2-hydroxy-6-(isopentylamino)-5,6,7,8-tetrahydroquinolin-3-yl)-1,2,5-thiadiazolidin-3-one 1,1-dioxide] registered an IC50 in test [2] of 70.8 µM.
